In patent publication US20230227466A1, “SUBSTITUTED THIENOPYRIMIDINES THAT INTERACT WITH THE RAS SUPERFAMILY FOR THE TREATMENT OF CANCERS, INFLAMMATORY DISEASES, RASOPATHIES, AND FIBROTIC DISEASE” (SHY Therapeutics, LLC, priority 2020, published 2023):
Read-outs that look alike come from different tables or passages of the source.

Legend:
[1] = molecular target: Rho-A (Homo sapiens, UniProt P61586); experiment: Ras GTP binding domain inhibition assay (labeled-GTP competition, cell-free); design: made in house
Summary of the method: (§1)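 Labeled-GTP competition read out as bound Cy3/Cy5-GTP fluorescence after washes, with 100 nM tracer for 45 min at RT. Before tracer, compounds at 20 μM, or a dilution series for IC50, sat 3 h at RT on the Ni-immobilized His-tagged GTPase. Sos GEF (10-30 μg/mL) was optionally present for the last hour.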

[2] = molecular target: KRas wild type (Homo sapiens, UniProt P01116); experiment: as above; design: made in house
Summary of the method: as §1

[3] = molecular target: Rac-1 (Homo sapiens, UniProt P63000); experiment: as above; design: made in house
Summary of the method: as §1

[4] = test system: MIA-PaCa-2 pancreatic cancer cell line (KRAS G12C); experiment: Cell proliferation assay (CellTiter 96 Aqueous One); type: cell-based; settings: Homo sapiens; for IC50: MIA PaCa-2, MIA PaCa-2; for inhibition at 10 µM: MIA PaCa-2, read-out: % inh cell proliferation (10 μM) in MIA PaCa-2
Summary of the method: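 After overnight attachment, compounds are added (10 μM final or serial dilutions) and left 2–4 days, with viability then measured by MTS.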

[5] = molecular target: T1, KRas G12D mutant (Homo sapiens, UniProt P01116, G12D); experiment: Ras GTP binding domain inhibition assay (labeled-GTP competition, cell-free)
T1 construct: made in house
Summary of the method: as §1

[6] = molecular target: T2, KRas G12C mutant (Homo sapiens, UniProt P01116, G12C); experiment: as above
T2 construct: made in house
Summary of the method: as §1

[7] = test system: Akt phosphorylation in Panc-1 cells; experiment: Western AKT cell-based phosphorylation assay; design: species or system human; settings: at 10 μM, values in brackets < > are activation %, not inhibition
Summary of the method: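 Panc-1 cells starved overnight in 0.5% FBS, exposed to compound at 10 μM (0.3% DMSO) for 6 h at 37° C, then stimulated with 1.5 ng/ml EGF for 15 min. Lysates probed by western blot with anti-phospho-Akt (Ser473), equal protein loading checked by Ponceau S.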

[8] = without SOS, read-out: Rho-A: % inh.
[9] = with SOS, read-out: KRas wild type + SOS: % inh.
[10] = without SOS, read-out: KRas wild type: % inh.
[11] = without SOS, read-out: Rac-1: % inh.
[12] = with SOS, read-out: KRas G12D mutant + SOS: % inh.
[13] = without SOS, read-out: KRas G12D mutant: % inh.
[14] = with SOS, read-out: KRas G12C mutant + SOS: % inh.
[15] = without SOS, read-out: KRas G12C mutant: % inh.

Structure (SMILES)	inhibition at 20 µM ([1]; with SOS, read-out: Rho-A + SOS: % inh.) [%]	inhibition at 20 µM [1, 8] [%]	inhibition at 20 µM [2, 9] [%]	inhibition at 20 µM [2, 10] [%]	inhibition at 20 µM ([3]; with SOS, read-out: Rac-1 + SOS: % inh.) [%]	inhibition at 20 µM [3, 11] [%]	IC50 [4] [µM]	inhibition at 10 µM [4] [%]	inhibition at 20 µM [5, 12] [%]	inhibition at 20 µM [5, 13] [%]	inhibition at 20 µM [6, 14] [%]	inhibition at 20 µM [6, 15] [%]	% inh of AKT phosphorylation in PANC-1 [7]
CO[C@H]1C[C@H](CNc2nc(-c3nccn3C)nc3sc(-c4ccn(C(C)C)n4)c(C)c23)C1 [Compound 48, 6-(1-Isopropyl-1H-pyrazol-3-yl)-N-(((1r,3r)-3-methoxycyclobutyl)methyl)-5-methyl-2-(1-methyl-1H-imidazol-2-yl)thieno[2,3-d]pyrimidin-4-amine]	76 to 100	51 to 75	51 to 75	76 to 100	26 to 50	26 to 50	< 1	76 to 100	51 to 75	26 to 50	51 to 75	51 to 75	0 (0% inhibition)
CO[C@H]1CCCN(c2nc(-c3nccn3C)nc3sc(-c4ccn(C(C)C)n4)c(C)c23)C1 [Compound 49, (S)-6-(1-Isopropyl-1H-pyrazol-3-yl)-4-(3-methoxypiperidin-1-yl)-5-methyl-2-(1-methyl-1H-imidazol-2-yl)thieno[2,3-d]pyrimidine]		51 to 75	76 to 100	51 to 75		26 to 50	5 to 10	76 to 100	26 to 50	0	51 to 75	1 to 25	D (76-100% inhibition)
CO[C@@H]1CCCN(c2nc(-c3nccn3C)nc3sc(-c4ccn(C(C)C)n4)c(C)c23)C1 [Compound 50, (R)-6-(1-Isopropyl-1H-pyrazol-3-yl)-4-(3-methoxypiperidin-1-yl)-5-methyl-2-(1-methyl-1H-imidazol-2-yl)thieno[2,3-d]pyrimidine]		76 to 100	51 to 75	51 to 75		0		76 to 100	1 to 25	0	51 to 75	26 to 50	D (76-100% inhibition)
Cc1c(-c2ccn(C(C)C)n2)sc2nc(-c3nccn3C)nc(NC[C@@H]3CCC(=O)N3)c12 [Compound 51]		76 to 100	51 to 75	51 to 75		51 to 75	> 10	0	51 to 75	26 to 50	26 to 50	51 to 75	0 (0% inhibition)
Cc1c(-c2ccn(C(C)C)n2)sc2nc(-c3nccn3C)nc(NC[C@H]3CCC(=O)N3)c12 [Compound 52, (R)-5-(((6-(1-Isopropyl-1H-pyrazol-3-yl)-5-methyl-2-(1-methyl-1H-imidazol-2-yl)thieno[2,3-d]pyrimidin-4-yl)amino)methyl)pyrrolidin-2-one]		76 to 100	51 to 75	51 to 75		51 to 75	> 10	1 to 25	51 to 75	51 to 75	26 to 50	51 to 75	0 (0% inhibition)
Cc1c(-c2ccn(C(C)C)n2)sc2nc(-c3nccn3C)nc(NCCc3ncc[nH]3)c12 [Compound 53, N-(2-(1H-Imidazol-2-yl)ethyl)-6-(1-isopropyl-1H-pyrazol-3-yl)-5-methyl-2-(1-methyl-1H-imidazol-2-yl)thieno[2,3-d]pyrimidin-4-amine]		76 to 100	51 to 75	26 to 50		1 to 25	5 to 10	76 to 100	26 to 50	1 to 25	26 to 50	26 to 50	0 (0% inhibition)
